Patent US20210283107A1, “Methods to Expand the Spectrum of Gram-Positive Antibiotics” (NORTH CAROLINA STATE UNIVERSITY, priority 2016, published 2021)
≈ marks a conversion by molar mass, not a printed value.

Key:
[1] = tested on: A. baumannii mutant AB522; assay: MIC against Tn-seq transposon mutant AB522; format: cell-based; conditions: Acinetobacter baumannii
Method: (§1) During individual MIC screening, two mutants, AB522 and AB1310, were identified due to their increased sensitivity to the three macrolide antibiotics and vancomycin when compared to AB 5075 (Table 17).
(§2) Day Cultures (6 h) were subcultured to 5×10^5 CFU/mL in cation adjusted Mueller-Hinton broth (CAMHB). Aliquots (1 mL) were placed in culture tubes, and compound was added from 100 mM stock solutions, such that the compound concentration equaled the highest concentration tested (200 μM or 64 μg/mL). Samples were then aliquoted (200 μL) into the first row of wells of a 96-well plate, with all remaining wells being filled with 100 μL of initial bacterial subculture. The wells in row one were mixed five times before 100 μL was transferred to the following row (row two). Row two was then mixed five times, and 100 μL was transferred to row three. This processed was repeated until the final row had been mixed. This process provided a serial dilution of the compound. Plates were covered with Glad Press n'Seal and were incubated under stationary conditions at 37° C. for 16 hours. MIC values were recorded as the lowest concentration at which no bacterial growth was observed.

[2] = tested on: A. baumannii strain 5075 (AB5075); assay: Macrolide sensitization / antibiotic resensitization: antibiotic MIC in presence of compound (broth microdilution); format: cell-based, Acinetobacter baumannii; conditions: AB5075; for Fold reduction (erythromycin MIC): compound at 60 μM vs antibiotic alone
Method: A. baumannii 5075 was plated on LB agar, then grown in CAMHB for 6-8 h and this culture was used to inoculate fresh CAMHB (5×10^5 CFU/mL). The resulting suspension was aliquoted (5 mL) into culture tubes and compound, from 100 mM DMSO stock, was added. One aliquot was not treated (control). 1 mL of each sample was transferred to a new culture tube and antibiotic was added. Rows 2-12 of a 96-well microtiter plate were filled with 100 μL/well from the remaining 4 mL bacterial subcultures, allowing the concentration of compound to be kept uniform throughout the antibiotic dilution procedure. Samples containing antibiotic were aliquoted (200 μL) into the corresponding first row wells of the microtiter plate. Row 1 wells were mixed 6 to 8 times then 100 μL was withdrawn and transferred to row 2. Row 2 wells were mixed 6 to 8 times, followed by a 100 μL transfer from row 2 to row 3. This procedure was repeated to serially dilute the rest of the rows of the microtiter plate, with the exception of the final row, to which no antibiotic was added (to check for growth of bacteria in the presence of compound alone). The microtiter plate was then covered, placed in a covered damp plastic container and incubated under stationary conditions at 37° C. After 16-18 hrs minimum inhibitory concentration (MIC) values were recorded as the lowest concentration of antibiotic at which there was no visible growth of bacteria. Experiments were carried out in duplicate each time and repeated at least twice.
The difference in antibiotic MIC between the control (no compound) sample, and the samples containing each compound was recorded as the fold-reduction.
Day Cultures (6 h) were subcultured to 5×10^5 CFU/mL in cation adjusted Mueller-Hinton broth (CAMHB). […] One milliliter of the resulting solution was aliquoted into a separate culture tube and was dosed with antibiotic so that the resulting concentration was the highest desirable concentration to be tested. Bacteria treated with antibiotic alone were used as a control. Row one of a 96-well plate was filled with 200 μL of the antibiotic/compound solution, and the remaining rows were filled with 100 μL of the remaining 4 mL bacterial subculture. The wells in row one were mixed five times before 100 μL was transferred to the following row (row two). Row two was then mixed five times, and 100 μL was transferred to row three. This process was repeated until the second to last row had been reached. The last row is left unexposed to antibiotic in order to serve as a negative control. The antibiotic only treated bacteria was plated by aliquoting 200 μL of the treated bacteria into row one and filling the remaining rows with untreated bacteria from the original bacteria subculture. The rows were mixed in the same way as described above. Plates were covered with Glad Press n'Seal and were incubated under stationary conditions at 37° C. for 16 hours. MIC values were recorded as the lowest concentration at which no bacterial growth was observed. Fold reductions were determined by comparison of the compound treated wells with the antibiotic only treated control wells.

[3] = tested on: A. baumannii mutant AB1310; assay: MIC against Tn-seq transposon mutant AB1310; format: cell-based; conditions: Acinetobacter baumannii
Method: as §1, §2

[4] = tested on: AB5075; assay: H33342 accumulation assay (efflux); format: cell-based, Acinetobacter baumannii; conditions: for H33342 accumulation, fluorescence at 355 and 460 nm: 25 μM CCCP, immediately following exposure
Method: In addition to the evaluation of the relationship between compounds 1 and 4 and colistin, the impact of compound 1 on efflux was evaluated using AB5075 and a bisBenzimide H33342 trihydrochloride (H33342) accumulation assay. Using a procedure adapted from Coldham et al. (A 96-well plate fluorescence assay for assessment of cellular permeability and active efflux in Salmonella enterica serovar Typhimurium and Escherichia coli. J Antimicrob Chemother, 2010. 65(8): p. 1655-63) and Richmond et al. (Efflux in Acinetobacter baumannii can be determined by measuring accumulation of H33342 (bis-benzamide). J Antimicrob Chemother, 2013. 68(7): p. 1594-600), the effect of no treatment, a known inhibitor carbonyl cyanide-m-chlorophenyl hydrazone (CCCP), and compound 1 on efflux was analyzed over 30 minutes and in two different treatment variations. Fluorescence was read using excitation and emission filters of 355 and 460 nm, and the values were processed in excel. The first analysis was performed immediately after treating the bacteria with compound 1 at both 10 and 30 μM and CCCP at 25 μM.
The second analysis was performed after exposing the bacteria to compound 1 at 30 μM for 5-hours shaking at 37° C.

[5] = tested on: A. baumannii strain 5075 (AB5075); assay: Broth microdilution MIC determination of compound alone; format: cell-based; conditions: Acinetobacter baumannii; compound alone; AB5075; read-out: MIC
Method: Our initial screening began by testing a diverse selection of 2-AI compounds from our internal library for their minimal inhibitory concentrations (MIC) against A. baumannii isolate 5075.
as §2

With `CC[C@H]1OC(=O)[C@H](C)[C@@H](O[C@H]2C[C@@](C)(OC)[C@@H](O)[C@H](C)O2)[C@H](C)[C@@H](O[C@@H]2O[C@H](C)C[C@H](N(C)C)[C@H]2O)[C@](C)(O)C[C@@H](C)CN(C)[C@H](C)[C@@H](O)[C@]1(C)O` [Azithromycin, azithromycin] the MIC [1] was 4 µg/mL (≈ 5.34 µM), the MIC ([2]; Acinetobacter baumannii, antibiotic alone, no compound (control row), read-out: MIC (μg/mL) of the antibiotic) was 64 µg/mL and the MIC [3] was 4 µg/mL (≈ 5.34 µM).

With `N#CC(C#N)=NNc1cccc(Cl)c1` [CCCP, carbonyl cyanide-m-chlorophenyl hydrazone, reference compound] the “H33342 accumulation, fluorescence at 355 and 460 nm” value (“H33342 accumulation, fluorescence” for short) ([4]; time 0 minutes) was 42,713.8 ± 10,482.1, the “H33342 accumulation, fluorescence” value ([4]; time 10 minutes) was 50,618.3 ± 9,944.3 and the “H33342 accumulation, fluorescence” value ([4]; time 20 minutes) was 50,928.8 ± 6,944.8. The “H33342 accumulation, fluorescence” value ([4]; time 30 minutes) was 48,907.2 ± 4,873 and the “change in H33342 fluorescence over 30 minutes” value ([4]; immediately after treating, compound 1 at both 10 and 30 μM, CCCP at 25 μM) was “a notable increase in fluorescence”.

In the case of `Nc1nc(-c2ccc(NC(=O)c3ccc(Br)cc3)cc2)c[nH]1` [Compound 18], the MIC [5] is reported as greater than 200 µM and the “Fold reduction (erythromycin MIC)” value [2] is reported as 4 fold.

With `Nc1nc(-c2ccc(NC(=O)c3cccc(Br)c3)cc2)c[nH]1` [Compound 19] the MIC [5] was greater than 200 µM and the “Fold reduction (erythromycin MIC)” value [2] was 8 fold.
